Experimental data reported in EP4789664A1, “NOVEL ANTI[…] AND USES THEREOF” (priority 2025, dated 2026).

Biological target: T1, IN-GCN2 interaction (UniProt P04585+Q9P2K8)
T1 construct: active truncated version of the human protein (192-1024); Recombinant full-length HIV-1 IN was produced in-house; purchased SignalChem (GCN2); IN made in-house in E. coli BL21(DE3)pLysS E12-11G; host or cells: BL21(DE3)pLysS for IN
Experiment: biochemical
Assay type: binding, HIV-1 IN; human GCN2
Details: read-out: inhibition of the IN-GCN2 interaction at 100 µM
Protocol: The interaction between IN and GCN2 was monitored using the AlphaLISA technology (Revvity). The reaction was performed in a shallow-well 384-well microplate (Revvity, AlphaPlate-384SW, ProxiPlate) with 24 nM GST-GCN2, 700 nM 6xHis-IN, 10 µg/mL of nickel chelate acceptor beads and glutathione donor beads, the test compound or an equivalent amount of DMSO (solvent at 10 % final concentration) in a buffer composed of 50 mM Tris-HCl pH 7.5, 1 mM DTT, 0.05% Tween 20, 0.1% bovine serum albumin (BSA) and 40 mM NaCl (final volume 15µl). First, the reaction was initiated by adding the various components except the donor beads. After 20 minutes at room temperature, the donor beads were added and the plate sealed. Data acquisition was performed 120 minutes later using a Victor Nivo Multimode Plate Reader (Revvity). Means, standard deviations and graphical representation were generated using Prism 8.4.3 software (GraphPad).
420 molecules from the National Cancer Institute Developmental Therapeutics Program (NCI DTP) were screened as modulators of the IN-GCN2 interaction in vitro. […] Experiments were conducted onto two separate AlphaPlates 384-shallow well, with 180 and 240 molecules respectively and 12 DMSO control each.

T1 sequence (Q9P2K8 192-1024, other chains not shown): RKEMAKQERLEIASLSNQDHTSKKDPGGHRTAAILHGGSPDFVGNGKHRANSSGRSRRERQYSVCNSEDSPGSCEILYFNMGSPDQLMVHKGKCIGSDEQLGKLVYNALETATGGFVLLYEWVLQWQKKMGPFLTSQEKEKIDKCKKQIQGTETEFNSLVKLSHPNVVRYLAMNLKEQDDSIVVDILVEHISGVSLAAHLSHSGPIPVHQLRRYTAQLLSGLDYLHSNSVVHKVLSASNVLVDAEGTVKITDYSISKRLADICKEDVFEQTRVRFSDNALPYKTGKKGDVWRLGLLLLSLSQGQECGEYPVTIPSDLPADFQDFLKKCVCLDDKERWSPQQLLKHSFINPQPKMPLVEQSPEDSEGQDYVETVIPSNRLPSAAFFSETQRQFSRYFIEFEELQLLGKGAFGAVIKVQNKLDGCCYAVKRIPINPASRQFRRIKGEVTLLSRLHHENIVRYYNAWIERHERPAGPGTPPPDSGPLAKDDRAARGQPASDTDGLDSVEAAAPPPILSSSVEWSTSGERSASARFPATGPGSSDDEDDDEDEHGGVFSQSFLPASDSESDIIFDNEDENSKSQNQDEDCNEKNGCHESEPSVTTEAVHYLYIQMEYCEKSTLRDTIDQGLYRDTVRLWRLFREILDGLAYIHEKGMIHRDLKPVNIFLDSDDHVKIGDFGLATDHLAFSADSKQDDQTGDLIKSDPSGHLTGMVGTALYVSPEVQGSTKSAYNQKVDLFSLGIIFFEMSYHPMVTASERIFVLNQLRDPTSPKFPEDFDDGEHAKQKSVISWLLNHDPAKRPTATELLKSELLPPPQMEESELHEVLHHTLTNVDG

Row | Compound | inhibition at 100 µM
1 | COc1cc2c(cc1OC)c1c(OC)c(OC)cc3c1c1c2sc(=S)n1CC3 [III-3a, 7,8,10,11-Tetramethoxy-4,5-dihydrodibenzo[de,g]-[1,3]thiazolo[5,4,3-ij]quinoline-2-thione] | ~80%
2 | CCOC(=O)N1CCc2cc(OC)c(OC)c3c2c1cc1cc(OC)c(OC)cc13 [III-3d, Dibenzo[de,g]quinoline-6-carboxylic acid, 4,5-dihydro-1,2,9,10-tetramethoxy-, ethyl ester] | ~55%
